Assay results: US20030153536A1, “Compounds and methods of treating transplant rejection” (priority 2001, published 2003)

How the values were obtained:
[1] = tested on: ACI-to-Lewis rat aortic allograft; experiment: Rat aortic allograft model (graft arteriosclerosis); format: in vivo; settings: for percent inhibition of IM ratio / percent inhibition of the % LN (luminal narrowing): day 90, vs vehicle control
Method: Compound A was evaluated for graft arteriosclerosis resulting from aortic heterotropic transplantation. This is a model of graft arteriopathy which is the major obstacle to long term success of solid organ transplantation.
Donor descending aortas from ACI rats were heterotypically transplanted into Lewis rat abdomens in end-to-end fashion with minimal ischemic time. 55 rats were assigned to five groups as follows:
(§1) Compound A was administered subcutaneously to recipient animals three days prior to the surgery and once daily for 90 days thereafter. […] Thereafter, the dose was reduced to 30 mg/kg/d for 6 days and then further reduced to 5 mg/kg/d for the remainder of the study.
On day 90, the allograft segment was removed, fixed in 10% buffered formal in and paraffin embedded. Sections were stained with von Geisson's elastic stain, and intima-to-media area (IM) ratio and percent luminal narrowing (% LN) were assessed by digital morphometry (See FIGS. 1 and 2). Blood was collected at regular intervals throughout the study and plasma evaluated for compound levels (See FIG. 3).

[2] = tested on: human aortic smooth muscle cells (AoSMC); experiment: Smooth muscle cell proliferation inhibition (3H-thymidine incorporation); format: cell-based; settings: 5% serum-stimulated AoSMC, 20 hr incubation, read-out: SMC Proliferation Inhibition (IC50)
Method: Cultured human aortic smooth muscle cells (AoSMC) were obtained from Clonetics, Inc. and were used below passage 10. Cells were seeded in 24-well plates. When cells were 80% confluent, they were made quiescent by adding media containing 0.2% serum (as compared to 5% serum in normal culture media) for 48 hours. The cells were then stimulated by 5% serum in the presence or absence of compounds dissolved in DMSO. To establish a dose curve and IC50 for each compound, multiple concentrations (20,15,10,5 μM) were used. Rapamycin (at 1 and 0.1 μM) was used as a positive control for the assay. After a 20 hr incubation with or without test compounds, ^3H-thymidine (0.5 μCi/per well) was added to the cells for 4 hours of labeling. Washed cells were then lysed in NaOH and the amount of^3H-thymidine incorporation was determined by a scintillation counter.

[3] = Tolerability in rat aortic allograft study; format: in vivo
Method: as §1
The group receiving the 40/30/5 mg/kg/d dose of Compound A evidenced the highest degree of inhibition despite the fact that it received only a 40 mg/kg/d dose for 13 days prior to dosing down. […] After 90 days of dosing, the trough plasma levels were 10, 18 and 28 uM for the 10,20 and 40/30/5 mg/kg/d doses, respectively.

[4] = background statement; cited from earlier work
[5] = 20 mg and 40/30/5 mg/kg/d doses

CC(C)(Sc1cc(C(C)(C)C)c(O)c(C(C)(C)C)c1)Sc1cc(C(C)(C)C)c(OCCCC(=O)O)c(C(C)(C)C)c1 [Compound A, 4-[4-[[1-[[3,5-bis(1,1-dimethylethyl)-4-hydroxyphenyl]thio]-1-methylethyl]thio]-2,6-bis(1,1-dimethylethyl)phenoxy]butyric acid]
percent inhibition of IM ratio ([1]; 10 mg/kg/d subcutaneous): 11%
percent inhibition of the % LN (luminal narrowing) ([1]; 10 mg/kg/d subcutaneous): 22%
% LN compared to the vehicle group [1, 5]: significantly lower
IM ratio compared to the vehicle group [1, 5]: significantly lower
percent inhibition of IM ratio ([1]; 20 mg/kg/d subcutaneous): 28%
percent inhibition of the % LN (luminal narrowing) ([1]; 20 mg/kg/d subcutaneous): 33%
inhibition of aortic neointimal growth ([1]; 10, 20, 40/30/5 mg/kg/d): dose-dependent inhibition
percent inhibition of IM ratio ([1]; 40/30/5 mg/kg/d subcutaneous): 49%
percent inhibition of the % LN (luminal narrowing) ([1]; 40/30/5 mg/kg/d subcutaneous): 52%
IC50 [2]: 5.5 µM
toxic side effects ([3]; 20 mg/kg/d): without grossly discemable toxic side effects
body weight change ([3]; 40 mg/kg/d group, until dose dropped to 5 mg/kg/d): initially lost weight
adverse findings leading to dose reduction ([3]; 40 mg/kg/d subcutaneous, 13 days): failure to gain weight and skin irritation
tolerability of treatment ([3]; 10 and 20 mg/kg/d subcutaneous): well tolerated

CCOC(=O)CC[C@H](NCC(O)COc1c(C(C)(C)C)cc(SC(C)(C)Sc2cc(C(C)(C)C)c(O)c(C(C)(C)C)c2)cc1C(C)(C)C)C(=O)OCC (some centres unmarked) [E]
IC50 [2]: 3.7 µM

CC(C)(Sc1cc(C(C)(C)C)c(O)c(C(C)(C)C)c1)Sc1cc(C(C)(C)C)c(OC(=O)CN)c(C(C)(C)C)c1 [Compound I]
IC50 [2]: 8 µM

C=CC[C@@H]1/C=C(\C)C[C@H](C)C[C@H](OC)[C@H]2O[C@@](O)(C(=O)C(=O)N3CCCC[C@H]3C(=O)O[C@H](/C(C)=C/[C@@H]3CC[C@@H](O)[C@H](OC)C3)[C@H](C)[C@@H](O)CC1=O)[C@H](C)C[C@@H]2OC [FK506, tacrolimus]
immunosuppressive activity relative to cyclosporin [4]: 10-100 times
